Key:
Format in all cases: in vivo
RSV A2 [1] = experiment: Lung viral titers by plaque assay after RSV challenge, naive BALB/c mice
[2] = system: RSV-F derived MHC II (I-Ed)-binding peptides; experiment: F-specific CD4 T-cell cytokine profiling of restimulated splenocytes, naive BALB/c mice; details: splenocytes 4 days post challenge, 72 h restimulation
[3] = system: RSV-F MHC I and MHC II restricted peptides; experiment: IFNγ ELISPOT of splenocytes, naive BALB/c mice; details: Day 32, 4 days post challenge, MHC I F peptide
RSV A2 [4] = experiment: RSV A2-GFP microneutralization of sera, 1x RSV seropositive BALB/c mice
Description: Naïve female BALB/c mice were divided into designated vaccine cohorts of 8-9 mice each and dosed at Day 0. […] Successful seroconversion was confirmed by F-specific ELISA endpoint titers on Day 0. Groups of 9 mice were inoculated intramuscularly (IM) with the vaccine formulations at Day 0. 3 mice per group were evaluated for cellular immune responses at 10 days post […], while the remaining 5-6 animals per group were followed for serum antibody responses through Day 73.
Serology readouts were made at Days 0, 14, 28, 42, 56, and 73 for each group. Animals were lightly anesthetized with isoflurane and bled intraorbitally. Serum was separated and stored at −20° C. and thawed for testing. Total anti-F IgG were measured at each timepoint, with anti-F IgG1 and anti-F IgG2a ELISA endpoint dilution titers measured at Day 0 and Day 42. RSV neutralization titer was determined by a RSV A2-GFP microneutralization assay. The polyclonal nature of the anti-F IgG response was evaluated on Day 42 by competition ELISA with site-specific monoclonal antibodies to RSV-F. Anti-F IgA endpoint dilution titers were measured at Day 14 for each group.

RSV A2 [5] = experiment: RSV microneutralization of sera, highly (2x) RSV seropositive BALB/c mice; details: very small amounts of antigen
Description: One hundred three female BALB/c mice (Charles River), ages 6-8 weeks old, were divided into 13 groups. Group 1 had 7 mice and groups 2 through 13 had 8 mice. Following anaesthetization groups 1 through 12 were dosed with 1×10^6 plaque forming units (PFU) in 100 μL of live RSV via an intranasal (IN) route on Day 0 and Day 35. Group 13 was not exposed to RSV. On Day 56, groups 1 through 11 were immunized with placebo (PBS) or vaccine article via an intramuscular (IM) route following anesthesia with isoflurane. The vaccine articles were formulated in a total of 100 μL with 50 μL given in each hind limb. Group 12 was anesthetized with isoflurane and immunized with 1×10^6 PFU in 100 μL of live RSV via an IN route. […] Sera were obtained from retro orbital blood collection at study days 0, 28, 56 70 and 84, separated from whole blood and stored at −20° C. until evaluated. Spleens from 4 animals in each group were harvested for T cell assays on Day 67, 11 days post immunization, or at day 88, 4 days post challenge. Lung cytokines quantified at 4 days after challenge in individual lung homogenates by luminex assay (Milipore).

RSV A2 [6] = experiment: RSV A2-GFP neutralizing Ab titers of sera, cynomolgus monkeys
Description: At Day 169, 5 months post vaccination, the booster vaccination was given.

Substance: RSV sF: RSV soluble F protein, amino acids 1-524 of the RSV A2 F sequence lacking the transmembrane domain, given without adjuvant
- animals having detectable lung viral titers (RSV A2 [1]; 4 days post challenge): 4/7
- lung protection (full = 100-fold reduction vs PBS) (RSV A2 [1]; 4 days post challenge): partial lung protection
- detectable lung viral titers (individual animals) (RSV A2 [1]; naive BALB/c, IM days 0 and 14, 0.3 μg RSV sF, challenge day 28, 4 days post challenge): 2.3-3.0 log10 pfu/gram
- F-specific CD4 T-cell cytokine production profile [2]: Th2-type response characterized by IL-5 and IL-13 cytokines
- F-specific CD8 IFNγ ELISPOT [3]: ~30 spot forming units (SFU)/million cells
- mean RSV neutralizing titers (RSV A2 [4]; Day 14, dose 0.4 μg RSV sF assumed from order): 8.32 log2
- mean RSV neutralizing titers (RSV A2 [4]; Day 14, dose 10 μg RSV sF assumed from order): 8.66 log2
- mean RSV neutralizing titers (RSV A2 [4]; Day 14, second value, dose 2 μg RSV sF assumed from order): 7.82 log2
- neutralization level lower than that of the highest adjuvanted RSV sF dose of 50 μg (RSV A2 [5]): approximately 6 fold
- animals with 4-fold boost in neutralizing titers from Day −7 levels (RSV A2 [6]; Day 42): 1/4
- geometric mean RSV neutralizing Ab titer (RSV A2 [6]; Day 42): 3.52±1.14 log 2
- RSV neutralizing Ab titers (RSV A2 [6]; Day 169): 2.97 log 2
- geomean neutralizing Ab titers (RSV A2 [6]; Day 183, 14 days following the third immunization): 4.46±1.79 log 2

Reference: US20160144021A1, “Vaccine Composition And Method Of Use” (MEDIMMUNE, LLC, priority 2013, published 2016)
